Reference: patent US20050260737A1, “Novel lipase gene from Bacillus sphaericus 205y” (priority 2004, published 2005)

Assays:
[1] = system: recombinant lipase (Bacillus sphaericus 205y lipase expressed in E. coli); test: Effect of organic solvents on crude recombinant lipase activity (organic solvent-tolerant test); assay type: biochemical; settings: for Relative activity (%) at concentration of 25%: 25% (v/v) solvent (1 ml solvent/3 ml crude enzyme), 30 min, 37° C., shaking, relative to non-solvent control
Procedure: The mixture is allowed to stand still for 20-30 seconds until the aqueous phase was sedimented clearly from the solution of isooctane and fatty acids. The reaction mixture contains 0.01 M calcium chloride (20 μl), olive oil emulsion (2.5 ml) and crude enzyme (1 ml). The reaction mixture was continuously agitated by using a horizontal shaker at 200 rpm at 37° C. The reaction was stopped by adding isooctane (5 ml) to dissolve free fatty acids produced by olive oil hydrolysis. Lipase activity was determined by measuring the free fatty acids from the standard curve of free fatty acids. One unit of lipase activity was defined as 1.0 μmol of fatty acid liberated per min per ml.
After induction with IPTG (1 mM), 10 ml of cells were pelleted by centrifugation at 10,000 gram and resuspended in 10 ml of Phosphate buffer (PBS). The cells were mixed thoroughly, placed on ice, and sonicated with Branson sonicater (2 min, 30% duty cycle). The broken cells were pelleted and the supernantant were used in determining the lipase activity and organic solvent tolerant. Various organic solvents were tested at the concentration of 25% (v/v) by addition of 1 ml of organic solvent to 3 ml of crude enzyme. The reaction mixture was incubated for 30 minutes at 37° C. under shaking condition (200 rpm). Remaining activity was assayed under standard condition and expressed as the percent of the control value. For control, distilled water was added instead of solvent. The organic solvents used were hexane, ρ-xylene, benzene, dimethy sulfoxide, acetonitrile and hexadecane. Each experiment was done in triplicate.
Table 4: Effect of different organic solvents on crude recombinant lipase activity. Three milliliters of cell-free supernatant of the culture was incubated with 1 ml of organic solvents at 37° C. with shaking. The remaining lipase activity relative to the non-solvent containing control was measured.

[2] = system: isolate 205y; test: Growth of isolate 205y in different organic solvents and concentrations; assay type: cell-based, Bacillus sphaericus 205y; parameters: Growth of isolate 205y: key to the marks not given beside the values; settings: for Growth of isolate 205y: growth visually determined
Procedure: The Bacillus sphaericus 205y culture could be obtained from Enzyme and Microbial Technology Research Department of Biochemistry and Microbiology, Faculty of Science and Environmental Studies, University Putra Malaysia. One gram of soil is resuspended in 10 ml basal mineral […] supplemented with selected hydrocarbon (0.1% v/v). The basal media contained (w/v) K2HPO4 0.5%, NH4Cl (1.0%), Na2SO4 (2%), KNO3 (2%), MgSO4.7H2O (0.2%).
Selected hydrocarbons would either be benzene, toluene or mixture of both as their sole carbon and energy source. Pure isolates were prescreened in media spiked with 1% v/v hydrocarbon. Isolates were grouped into groups of good, moderate, acceptable and negative, based on the turbidity of the media (Inoue et al., 1989). Non-inoculated controls were also used to ensure that the turbidity is due to growth.

[3] = system: lipase secreted by Bacillus sphaericus 205y; test: Effect of organic solvents on crude lipase secreted by Bacillus sphaericus 205y; assay type: biochemical; settings: 25% (v/v) solvent
Procedure: Lipase activity is measured with olive oil emulsion as substrate (Kwon and Rhee. 1991). All reactions were performed at 37° C. for 15 minutes at shaking condition of 200 rpm unless otherwise indicated. One unit of lipase activity was defined as 1.0 μmol of fatty acid liberated per min per ml.
Bacillus sphaericus 205y is grown at 37° C. in M3 medium. The culture medium (24 h) is […] (0.25 μm pore size) as crude enzyme. Investigation of various effects of organic solvents at the concentration of 25% (v/v) (1 ml of organic solvent/3 ml of crude enzyme) on the lipase activity was done. The reaction mixture was incubated for 30 minutes at 37° C. under shaking condition (200 rpm).

[4] = cited from earlier work

Compound: CCCCCCCCCCCCCCCC [Hexadecane]
- Effect on recombinant lipase activity (in words) ([1]; 25% (v/v) solvent): completely inhibited
- Relative activity (%) at concentration of 25% [1]: 0%

Compound: c1ccccc1 [Benzene]
- Growth of isolate 205y ([2]; Hydrocarbon 1% (v/v)): ++
- Growth of isolate 205y ([2]; Hydrocarbon 5% (v/v)): +++
- Growth of isolate 205y ([2]; Hydrocarbon 10% (v/v)): +++
- Growth of isolate 205y ([2]; Hydrocarbon 25% (v/v)): ++
- Growth of isolate 205y ([2]; Hydrocarbon 50% (v/v)): ++
- Growth of isolate 205y ([2]; Hydrocarbon 75% (v/v)): ++

Compound: CC#N [Acetonitrile]
- Relative activity (%) at concentration of 25% [1]: 0%

Compound: Cc1ccc(C)cc1 [ρ-Xylene]
- Growth of 205y in solvent (in words) [2]: good growth
- Growth of isolate 205y ([2]; Hydrocarbon 1% (v/v)): ++
- Growth of isolate 205y ([2]; Hydrocarbon 5% (v/v)): +++
- Growth of isolate 205y ([2]; Hydrocarbon 10% (v/v)): +++
- Growth of isolate 205y ([2]; Hydrocarbon 25% (v/v)): +++
- Growth of isolate 205y ([2]; Hydrocarbon 50% (v/v)): ++
- Growth of isolate 205y ([2]; Hydrocarbon 75% (v/v)): ++
- Relative activity (%) at concentration of 25% [1]: 90%
- Stability of lipase secreted by Bacillus sphaericus 205y in solvent (in words) [3]: stable

Compound: CCCCCC [n-Hexane]
- Effect on recombinant lipase activity (in words) ([1]; 25% (v/v) solvent): slightly activated
- Lipase activity enhanced (fold of control) ([1]; 25% (v/v) solvent): 1.10 folds
- Relative activity (%) at concentration of 25% [1]: 110%
- Stability of lipase secreted by Bacillus sphaericus 205y in solvent (in words) [3]: stable
- Log P [4]: 3.6

Compound: Cc1ccccc1 [Toluene]
- Growth of isolate 205y ([2]; Hydrocarbon 1% (v/v)): +++
- Growth of isolate 205y ([2]; Hydrocarbon 5% (v/v)): +++
- Growth of isolate 205y ([2]; Hydrocarbon 10% (v/v)): ++
- Growth of isolate 205y ([2]; Hydrocarbon 25% (v/v)): ++
- Growth of isolate 205y ([2]; Hydrocarbon 50% (v/v)): ++
- Growth of isolate 205y ([2]; Hydrocarbon 75% (v/v)): ++

Compound: C[S+](C)[O-] [Dimethyl sulfoxide]
- Relative activity (%) at concentration of 25% [1]: 10%
- Log P [4]: −1.22
